PubChem BioAssay AID179 (DTP/NCI, 2004)
Active and inactive are the calls of the source.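 Rule for the calls: active = compounds giving half or more protection of infected cells from virus-caused growth loss, again on retest; inactive = the rest.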

Test system: CEM cells HIV-1 protection, formazan growth assay
Assay: NCI AIDS Antiviral Assay
Conditions: for IC50: measured here: growth of uninfected CEM cells
Procedure, shortened: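 Five concentrations of each compound were applied to infected and uninfected human CEM cells. Protection from HIV-1 was judged from growth measured with a soluble formazan assay.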

| Compound | EC50 | IC50 | outcome |
| --- | --- | --- | --- |
| Cc1cc(-c2cccs2)oc(=O)c1NC(=O)c1ccccc1 | > 200 µM | 26.9 µM | – |
| CC1=Nc2cc(N)nn2C(=O)C1 | > 200 µM | > 200 µM | – |
| Cn1[nH]c(=O)ccc1=O | > 2000 µM | 1780 µM | – |
| CCCCN(CCCC)C(=S)S | > 200 µM | > 200 µM | – |
| C1CN2C(=N1)N1CCN=C1N1CCN=C21 | > 174 µM | > 174 µM | – |
| C[C@H]1CC(=O)C[C@@H]2CC[C@@H]3[C@H](CC[C@]4(C)C(OC(=O)c5cccc6c(=O)c7ccccc7[nH]c56)CC[C@@H]34)[C@]21C (stereo partly specified) | > 200 µM | 22.4 µM | – |
| C[n+]1c(-c2ccc(/C=N/Nc3n[nH]c(=S)n3N/N=C/c3ccc(-c4cn5ccccc5[n+]4C)cc3)cc2)cn2ccccc21 | 18.6 µM | > 200 µM | – |
| COc1ccc(C(=O)Cn2c(C(C)=O)nc3ccccc32)cc1 | > 200 µM | 2.45 µM | – |
| COc1ccccc1C1c2cc3c(cc2OC(N2CCCC2)C1C)OCO3 (stereo unspecified) | > 200 µM | 16.2 µM | – |
| O=C(C(c1ccccc1)c1ccccc1)N1CCN(c2ccccn2)CC1 | > 89.1 µM | 29.5 µM | – |
| C(=N\NC1=NCCN1)/c1ccc2ccccc2c1 | > 200 µM | 22.9 µM | – |
| CC(C)(C)OC1=C(OC(C)(C)C)C(O)(c2ccc(Cl)cc2)C1=O (stereo unspecified) | – | – | inactive |
| Cc1oc2c(c1C)S(=O)(=O)C(C#N)=CN2 | > 200 µM | > 200 µM | – |
| CCN(CC)CCO/N=C1\CC[C@H]2[C@@H]3CC=C4C[C@@H](O)CC[C@]4(C)[C@H]3CC[C@]12C | > 200 µM | 15.5 µM | – |
| Cc1cccc(Nc2c3c(nc4ccccc24)CCCCC3)c1 | – | – | inactive |
| C[C@@H]1O[C@@H](O[C@H]2CC[C@]3(C=O)[C@H]4CC[C@]5(C)[C@@H](c6ccc(=O)oc6)CC[C@]5(O)[C@@H]4CC[C@]3(O)C2)[C@H](O)[C@H](O)[C@H]1O[C@@H]1O[C@H](CO)[C@@H](O)[C@H](O)[C@H]1O | > 0.2 µM | 0.0038 µM | – |
| CCNC1CC(C(C)(C)NCC)CC=C1C (stereo unspecified) | > 224 µM | > 224 µM | – |
| C=C=C(CC)C(C(=O)OC)N(CC)CC (stereo unspecified) | – | – | inactive |
| Cc1ccc(C2=NNc3n[nH]c(=S)n3N2)cc1 | > 75.9 µM | > 75.9 µM | – |
| Cc1nc2nnnn2c2c1C(=O)Nc1ccccc1N2 | > 200 µM | 83.2 µM | – |
| O=c1c2ncn(C3CCCCO3)c2n(-c2ccccc2)c(=S)n1-c1ccccc1 (stereo unspecified) | – | – | inactive |
| O=C(O)c1ccc(C2COc3ccc(Cl)cc3C2)cc1 (stereo unspecified) | > 174 µM | 105 µM | – |

| Compound | EC50 | IC50 | outcome |
| --- | --- | --- | --- |
| C[C@@H]1C[C@@H](O)[C@]2(O)O[C@@H]3C[C@@]4(C=O)[C@@H](CC[C@@H]5[C@@H]4CC[C@]4(C)[C@@H](C6=CC(=O)OC6)CC[C@]54O)C[C@H]3O[C@@H]2O1 | > 468 µM | 1.82 µM | – |
| O=[N+]([O-])/C=C/c1c(Cl)cccc1Cl | – | – | inactive |
| N#CC(C#N)=Cn1ccc(=O)[nH]c1=S | > 200 µM | > 200 µM | – |
| O=c1n(-c2ccccc2)c(=O)n2n1C1C3C4CCC1C4(Cl)C32 (stereo unspecified) | > 40.7 µM | > 40.7 µM | – |
| COC1/C=C/OC2(C)Oc3c(C)c(O)c4c(O)c(c(C=NN5CCCCCCCC5)c(O)c4c3C2=O)NC(=O)/C(C)=C/C=C/C(C)C(O)C(C)C(O)C(C)C(OC(C)=O)C1C (stereo unspecified) | – | – | inactive |
| Cc1cn(CCOCCOC(=O)NC(CCCN=C(N)N)C(=O)O)c(=O)[nH]c1=O (stereo unspecified) | > 200 µM | > 200 µM | – |
| CNC(=O)CCCN(C)C(=O)CCCCC(=O)N(C)C | > 200 µM | > 200 µM | – |
| N#CC1(O)CCCCCCCCCCC1 | > 200 µM | > 200 µM | – |
| CC(C)(C)OC(=O)NC(Cc1cnc[nH]1)C(=O)N1CCCC1C(N)=O (stereo unspecified) | > 200 µM | > 200 µM | – |
| Cc1cc(NC(=O)c2ccc(N)cc2)ccc1N=Nc1ccc2c(O)c(N=Nc3ccc(S(=O)(=O)O)cc3C)c(S(=O)(=O)O)cc2c1 | 34.7 µM | > 200 µM | – |
| CO[C@H]1Nc2c(ccc(C)c2O)C(=O)N2C=C(/C=C/C(N)=O)C[C@@H]12 | > 759 µM | 0.427 µM | – |
| CC(C)(O)[C@@H]1CCC(C)([C@H]2[C@@H](O)CC3(C)C4CC(OC5OC(CO)C(O)C(O)C5O)C5C(C)(C)[C@@H](OC6OCC(O)C(O)C6O)CC[C@@]56C[C@@]46CC[C@]23C)O1 (stereo partly specified) | > 120 µM | > 120 µM | – |
| COC1OC(CO)C(O)C2NCSC12 (stereo unspecified) | 33.9 µM | > 200 µM | – |
| Cc1cc(S(=O)(=O)Nc2nc(N)n(-c3ccccc3)n2)c(S)cc1Cl | 129 µM | 468 µM | – |
| CCc1cc(Cc2cc(Cl)c(NC(=O)C(=O)C3NC(=O)NC3=O)c(CC)c2)cc(Cl)c1NC(=O)C(=O)C1NC(=O)NC1=O (stereo unspecified) | > 151 µM | 24.5 µM | – |
| OC(NN=C1CCCC1)(C(F)(F)Cl)C(F)(F)Cl | > 200 µM | 170 µM | – |
| O=C(Nc1ccccc1)C1CC=C2CCC3OC(=O)C1C23 (stereo unspecified) | > 331 µM | > 331 µM | – |
| CCCCCCOC(=O)c1[nH]c(=O)[nH]c(=O)c1N | > 200 µM | > 200 µM | – |
| Cc1cc(O)c2c(c1O)C(=O)C13C(=C2O)C(=O)C2C(O)C1C1C(O)C3C(=O)C3=C(O)c4c(O)cc(C)c(O)c4C(=O)C321 (stereo unspecified) | > 45.7 µM | 0.0977 µM | – |
| C/C(O)=C(/C=NC(=S)C(N)=S)C(=O)Nc1ccccc1 | > 200 µM | 102 µM | – |
| COc1ccc2nc3cc([N+](=O)[O-])ccc3c(Nc3ccc(S(=O)(=O)NC(C)=O)cc3)c2c1 | > 200 µM | 75.9 µM | – |
| C(=N/NC1=NCCN1)/c1c2ccccc2c(/C=N\NC2=NCCN2)c2ccccc12 | > 1.07 µM | 0.0363 µM | – |

| Compound | EC50 | IC50 | outcome |
| --- | --- | --- | --- |
| CN(C)CCCNc1c2ccccc2nc2cccc([N+](=O)[O-])c12 | > 0.2 µM | 0.000407 µM | – |
| CCCC1C(C#N)(C#N)C1(C#N)C#N | > 200 µM | 2.69 µM | – |
| CCOP(=O)(OCC)/C(C#N)=C/c1cccc(OC)c1 | > 229 µM | > 229 µM | – |
| O=C(O)C12C3CCCC1C2CC3 (stereo unspecified) | – | – | inactive |
| CN(CCO)c1nc(N)cc(=O)[nH]1 | > 1350 µM | > 1350 µM | – |
| O=S(=O)(c1ccccc1)n1cnc(CCc2ccccc2)n1 | > 794 µM | > 794 µM | – |
| COc1ccc(OC)c2c1C=C[C@H](C1(C)SCCS1)C2C(C)=O (stereo partly specified) | > 200 µM | 8.91 µM | – |
| CCOC(=O)/C(=C\c1cccc(F)c1)P(=O)(OCC)OCC | > 57.5 µM | 10.2 µM | – |
| CCCCCC1C(=O)N2C=C(c3ccccc3)c3ccccc3N2C1=O (stereo unspecified) | – | – | inactive |
| N#C/C(=C\c1ccc([N+](=O)[O-])cc1)c1ccccc1 | > 11 µM | > 11 µM | – |
| CSc1ncnc2nc(C(O)c3ccccc3)[nH]c12 (stereo unspecified) | – | – | inactive |
| O=c1c(=O)c2cc(O)ccc12 | > 1700 µM | 282 µM | – |
| N#Cc1ccccc1NC(=O)C(=O)C(C(=O)c1ccccc1-c1ccccc1)C1OC(=O)c2ccccc21 (stereo unspecified) | > 52.5 µM | 26.3 µM | – |
| CCOc1ccc(NC(=O)CC2SC(=Nc3ccc(Cl)cc3)NC2=O)cc1 (stereo unspecified) | > 617 µM | > 617 µM | – |
| NNc1nnc(-c2ccccc2)nc1Cc1ccccc1 | > 25.7 µM | 13.8 µM | – |
| C/C(N=NS(=O)(=O)c1ccccc1)=C1\C=CC=CN1O | – | – | inactive |
| NNC1=N/C(=C\c2ccco2)C(Cl)=N1 | > 200 µM | 38 µM | – |
| CCCCCCN(CCCCCC)C(F)(F)C(=O)Nc1ccc(S(=O)(=O)c2ccc(NC(=O)C(F)(F)N(CCCCCC)CCCCCC)cc2)cc1 | > 100 µM | 5.13 µM | – |
| Cc1c(-c2ccccc2)[nH]n(C2=NCCN2)c1=O | > 200 µM | 120 µM | – |
| Fc1nc(-c2c3ccccc3c3sc4ccccc4n23)nc(N2CCOCCOCCOCCOCC2)n1 | > 200 µM | 51.3 µM | – |
| CCOC(=O)Cn1c(=O)cc(C=O)c2ccccc21 | > 200 µM | 15.5 µM | – |
| CCCCc1ccc(-n2sc3ncccc3c2=O)cc1 | 1.74 µM | 8.32 µM | – |

| Compound | EC50 | IC50 | outcome |
| --- | --- | --- | --- |
| CCN=C(N)Nc1ccccc1 | > 200 µM | 132 µM | – |
| CC(C)(C)OC(=O)CC(NC(=O)OCc1ccccc1)NC(=O)OC(C)(C)C (stereo unspecified) | > 200 µM | > 200 µM | – |
| O=C(NC1CCC[C@H]1OC(=O)c1ccccc1)c1ccccc1 (stereo partly specified) | – | – | inactive |
| CCN1CCC(O)(c2ccc(C)cc2)C(C(=O)c2ccc(C)cc2)C1 (stereo unspecified) | > 162 µM | 11.7 µM | – |
| N#C/C(=C\c1ccc(F)cc1)c1nc2ccccc2c(=O)[nH]1 | – | – | inactive |
| NC1=NN(c2ccccc2)C(=O)C1C(=O)C(=O)Nc1cccc(C(F)(F)F)c1 (stereo unspecified) | – | – | inactive |
| COc1ccc(CCc2cc(OC)c(O)c(OC)c2)cc1 | > 200 µM | 10.5 µM | – |
| O=C(NC1CCN(Cc2ccccc2)CC1)c1cccc(I)c1 | > 200 µM | 33.9 µM | – |
| CC1C(C#N)(C#N)C(C#N)=C(N)C1(C)[N+](=O)[O-] (stereo unspecified) | > 200 µM | 27.5 µM | – |
| Cc1nc2c(nc1C)C(=O)c1ccccc1C2=O | > 200 µM | 4.57 µM | – |
| COc1ccc(C2OCC3OC(n4cc(C)c(=O)[nH]c4=O)CC3N2O)cc1 (stereo unspecified) | > 200 µM | > 200 µM | – |
| CCOC(=O)C(C(=S)SC)c1nn2c(=O)cc(C)nc2s1 (stereo unspecified) | > 200 µM | 19.1 µM | – |
| O=c1ccc2c(cc3ccc4cccc5ccc2c3c45)o1 | – | – | inactive |
| N#C/C(=C\c1ccc(C#N)cc1)c1ccccc1 | > 11.7 µM | > 11.7 µM | – |
| Cc1nc(N)nc(CCC(=O)Nc2cccc(C(F)(F)F)c2)c1-c1ccc(Cl)cc1 | > 302 µM | > 302 µM | – |
| Cc1ccc2c(n1)C(N1CCCCC1)=CC(=O)C2=O | – | – | inactive |
| [CH3][Ge]([CH3])([CH2]CC#N)[S]c1ccccc1 | > 200 µM | 20 µM | – |
| CN1CC2=C(NC(=S)NC2c2ccc(Cl)cc2)/C(=C/c2ccc(Cl)cc2)C1 (stereo unspecified) | > 200 µM | 33.9 µM | – |
| CC1=CC=NN2C(=O)[C@H](C)C2C1 (stereo partly specified) | > 1510 µM | > 1510 µM | – |
| COC1(OC)CC(CO)(COc2cc(Cl)nc(N)n2)C1 | > 200 µM | > 200 µM | – |
| CN(C)Cc1cc(C(=O)/C=C/c2ccc(/C=C/C(=O)c3cc(CN(C)C)c(O)c(CN(C)C)c3)cc2)cc(CN(C)C)c1O | > 200 µM | 10 µM | – |
| N#CCCN(CCCN(C(=O)Nc1ccc(NC(=O)N(CCCN(CCC#N)C(N)=O)c2ccccc2)cc1)c1ccccc1)C(N)=O | > 200 µM | > 200 µM | – |
